The record followed here is US20260365671A1, “HETEROCYCLIC COMPOUND” (Takeda Pharmaceutical Company Limited, priority 2022, published 2026).

In one test the test system is NF-κB pathway. The test can be described thus: TNF-α assay (THP-1 cells differentiated to macrophages with IFN-γ, NF-κB pathway activated with LPS; ELISA). Type of test: cell-based, Human. The conditions noted are these: Homo sapiens, THP-1, THP-1 macrophages, compound 30 min, 50 ng/mL LPS 3 hours. An outline of the steps:
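TNF-α release measured by ELISA after 3 h stimulation with 50 ng/mL LPS, following 30 min compound pretreatment (37 °C, no FBS). Cells were THP-1 macrophages primed with IFN-γ 25 ng/mL for 24 h. IC50 derived by logistic curve fit.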

The next test addresses T1, NLRP3 inflammasome (Homo sapiens, UniProt Q96P20).
T1 construct: IL-1beta HTRF
The test can be described thus: IL-1β TR-FRET assay (THP-1 cells differentiated to macrophages with IFN-γ, LPS primed, ATP activated; HTRF). The format is cell-based. The conditions noted are these: THP-1 macrophages, 50 ng/mL LPS priming, compound 30 min, 20 mM ATP 2 hours. The procedure, abridged: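 IL-1β release was read by HTRF after 16–24 h antibody incubation at room temperature, using supernatants from THP-1-derived macrophages (IFN-γ 25 ng/mL, LPS 50 ng/mL priming) given compound 30 min and then 20 mM ATP for 2 h. % inhibition versus concentration was fitted logistically for IC50.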

T1 sequence (Q96P20 whole entry): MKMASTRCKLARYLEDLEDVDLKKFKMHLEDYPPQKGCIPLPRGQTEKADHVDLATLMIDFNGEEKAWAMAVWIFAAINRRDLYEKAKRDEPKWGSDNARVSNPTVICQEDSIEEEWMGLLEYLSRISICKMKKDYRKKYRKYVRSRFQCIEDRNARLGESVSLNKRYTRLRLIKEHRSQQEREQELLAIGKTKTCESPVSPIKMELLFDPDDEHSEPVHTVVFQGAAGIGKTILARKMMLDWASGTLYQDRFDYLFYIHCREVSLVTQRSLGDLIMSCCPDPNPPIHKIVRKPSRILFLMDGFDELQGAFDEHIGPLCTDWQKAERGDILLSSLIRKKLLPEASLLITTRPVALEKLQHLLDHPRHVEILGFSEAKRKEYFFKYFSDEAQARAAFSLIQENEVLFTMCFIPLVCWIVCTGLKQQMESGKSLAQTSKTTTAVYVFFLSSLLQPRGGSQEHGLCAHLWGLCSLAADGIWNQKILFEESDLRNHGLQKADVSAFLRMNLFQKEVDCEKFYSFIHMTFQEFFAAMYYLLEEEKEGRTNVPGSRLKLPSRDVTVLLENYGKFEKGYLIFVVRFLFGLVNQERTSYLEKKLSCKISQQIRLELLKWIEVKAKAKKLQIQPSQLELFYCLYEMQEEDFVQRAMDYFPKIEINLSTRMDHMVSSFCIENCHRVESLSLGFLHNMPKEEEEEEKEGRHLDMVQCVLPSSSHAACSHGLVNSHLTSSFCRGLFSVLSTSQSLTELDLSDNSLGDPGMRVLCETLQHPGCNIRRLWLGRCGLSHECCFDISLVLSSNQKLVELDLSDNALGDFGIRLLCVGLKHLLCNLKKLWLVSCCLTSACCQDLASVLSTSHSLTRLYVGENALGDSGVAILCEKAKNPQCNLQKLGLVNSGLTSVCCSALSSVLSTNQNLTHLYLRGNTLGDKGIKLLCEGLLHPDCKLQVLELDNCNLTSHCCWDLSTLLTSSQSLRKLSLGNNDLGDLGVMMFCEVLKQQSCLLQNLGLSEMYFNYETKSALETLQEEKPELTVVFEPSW

Take `Cc1cc(O)c(-n2cc3sc(N[C@@H]4C[C@@H](F)CN(C)C4)nc3n2)c(C(C)C)c1` [Example 94, 2-(5-{[(3R,5R)-5-fluoro-1-methylpiperidin-3-yl]amino}-2H-pyrazolo[3,4-d][1,3]thiazol-2-yl)-5-methyl-3-(propan-2-yl)phenol]: the IC50 in the test on NF-κB pathway was above 30000 nM; on NLRP3 inflammasome it was 31 nM.
Take `Cc1cc(C)c(-n2cc3sc(NC4CC(=O)N(C)C4)nc3n2)c(O)c1` (centres unmarked) [Example 95, 4-{[2-(2-hydroxy-4,6-dimethylphenyl)-2H-pyrazolo[3,4-d][1,3]thiazol-5-yl]amino}-1-methylpyrrolidin-2-one]: the IC50 with NF-κB pathway was above 30000 nM; on NLRP3 inflammasome it was 1300 nM.
For `Cc1cc(C)c(-n2cc3sc(NC4CCN(C(=O)C5CC5)C4)nc3n2)c(O)c1` (centres unmarked) [Example 96, cyclopropyl(3-{[2-(2-hydroxy-4,6-dimethylphenyl)-2H-pyrazolo[3,4-d][1,3]thiazol-5-yl]amino}pyrrolidin-1-yl)methanone], the results for the IC50 in the test on NF-κB pathway and against NLRP3 inflammasome were above 30000 nM and 400 nM, respectively.
Regarding `Cc1cc(C)c(-n2cc3sc(NC4CCN(C(=O)CC5CC5)C4)nc3n2)c(O)c1` (centres unmarked) [Example 97, 2-cyclopropyl-1-(3-{[2-(2-hydroxy-4,6-dimethylphenyl)-2H-pyrazolo[3,4-d][1,3]thiazol-5-yl]amino}pyrrolidin-1-yl)ethan-1-one], the IC50 is above 10000 nM in the test with NF-κB pathway and 260 nM on NLRP3 inflammasome.
On to `Cc1cc(C)c(-n2cc3sc(NC4CCN(C(=O)C5(F)CC5)C4)nc3n2)c(O)c1` (centres unmarked) [Example 98, (1-fluorocyclopropyl)(3-{[2-(2-hydroxy-4,6-dimethylphenyl)-2H-pyrazolo[3,4-d][1,3]thiazol-5-yl]amino}pyrrolidin-1-yl)methanone], for which the IC50 with NF-κB pathway is above 30000 nM; on NLRP3 inflammasome it was 460 nM.
`Cc1cc(C)c(-n2cc3sc(NC4CCN(C(=O)C5(C#N)CC5)C4)nc3n2)c(O)c1` (centres unmarked) [Example 99, 1-(3-{[2-(2-hydroxy-4,6-dimethylphenyl)-2H-pyrazolo[3,4-d][1,3]thiazol-5-yl]amino}pyrrolidine-1-carbonyl)cyclopropane-1-carbonitrile]: the values for the IC50 with NF-κB pathway and at NLRP3 inflammasome were above 30000 nM and 250 nM, respectively.
With `Cc1cc(C)c(-n2cc3sc(NC4CCN(S(C)(=O)=O)C4)nc3n2)c(O)c1` (centres unmarked) [Example 100, 2-(5-{[1-(methanesulfonyl)pyrrolidin-3-yl]amino}-2H-pyrazolo[3,4-d][1,3]thiazol-2-yl)-3,5-dimethylphenol], the IC50 was above 30000 nM in the test on NF-κB pathway and 620 nM against NLRP3 inflammasome.
The corresponding values for `Cc1cc(C)c(-n2cc3sc(NC4CCN(S(=O)(=O)C5CC5)C4)nc3n2)c(O)c1` (centres unmarked) [Example 101, 2-(5-{[1-(cyclopropanesulfonyl)pyrrolidin-3-yl]amino}-2H-pyrazolo[3,4-d][1,3]thiazol-2-yl)-3,5-dimethylphenol] are above 30000 nM and 420 nM.
For `Cc1cc(C)c(-n2cc3sc(NC4CCN(C(=O)C(C)(C)O)C4)nc3n2)c(O)c1` (centres unmarked) [Example 102, 2-hydroxy-1-(3-{[2-(2-hydroxy-4,6-dimethylphenyl)-2H-pyrazolo[3,4-d][1,3]thiazol-5-yl]amino}pyrrolidin-1-yl)-2-methylpropan-1-one], the half-maximal inhibitory concentration (IC50) in the test on NF-κB pathway is above 30000 nM; against NLRP3 inflammasome, 280 nM.
As to `Cc1cc(C)c(-n2cc3sc(NC4CCN(C)C4=O)nc3n2)c(O)c1` (centres unmarked) [Example 103, 3-{[2-(2-hydroxy-4,6-dimethylphenyl)-2H-pyrazolo[3,4-d][1,3]thiazol-5-yl]amino}-1-methylpyrrolidin-2-one], the IC50 in the test on NF-κB pathway is above 30000 nM; at NLRP3 inflammasome it was 810 nM.
Taken in the same sequence, the figures for `Cc1cc(OC(F)F)cc(O)c1-n1cc2sc(N[C@@H]3C[C@@H](F)CN(C)C3)nc2n1` [Example 107, 5-(difluoromethoxy)-2-(5-{[(3R,5R)-5-fluoro-1-methylpiperidin-3-yl]amino}-2H-pyrazolo[3,4-d][1,3]thiazol-2-yl)-3-methylphenol] were above 30000 nM and 75 nM.
The corresponding values for `CC(=O)N1CCCC(Nc2nc3nn(-c4c(C)cc(C)cc4O)cc3s2)C1` (centres unmarked) [Example 108, 1-(3-{[2-(2-hydroxy-4,6-dimethylphenyl)-2H-pyrazolo[3,4-d][1,3]thiazol-5-yl]amino}piperidin-1-yl)ethan-1-one] are above 30000 nM and 610 nM.
As to `CCC(=O)N1CCCC(Nc2nc3nn(-c4c(C)cc(C)cc4O)cc3s2)C1` (centres unmarked) [Example 109, 1-(3-{[2-(2-hydroxy-4,6-dimethylphenyl)-2H-pyrazolo[3,4-d][1,3]thiazol-5-yl]amino}piperidin-1-yl)propan-1-one], the results for the IC50 in the test with NF-κB pathway and on NLRP3 inflammasome were above 30000 nM and 590 nM, respectively.
For `COC(=O)N1CCCC(Nc2nc3nn(-c4c(C)cc(C)cc4O)cc3s2)C1` (centres unmarked) [Example 110, methyl 3-{[2-(2-hydroxy-4,6-dimethylphenyl)-2H-pyrazolo[3,4-d][1,3]thiazol-5-yl]amino}piperidine-1-carboxylate], the IC50 in the test with NF-κB pathway is above 30000 nM; at NLRP3 inflammasome it was 990 nM.
Take `CNC(=O)N1CCCC(Nc2nc3nn(-c4c(C)cc(C)cc4O)cc3s2)C1` (centres unmarked) [Example 111, 3-{[2-(2-hydroxy-4,6-dimethylphenyl) 2H-pyrazolo[3,4-d][1,3]thiazol-5-yl]amino}-N-methyl-piperidine-1-carboxamide]: the IC50 was above 30000 nM in the test with NF-κB pathway and 810 nM on NLRP3 inflammasome.
Regarding `Cc1cc(C)c(-n2cc3sc(NC4CCCN(S(C)(=O)=O)C4)nc3n2)c(O)c1` (centres unmarked) [Example 112, 2-(5-{[1-(methanesulfonyl)piperidin-3-yl]amino}-2H-pyrazolo[3,4-d][1,3]thiazol-2-yl)-3,5-dimethylphenol], the figures for the IC50 in the test with NF-κB pathway and against NLRP3 inflammasome were above 10000 nM and 550 nM, respectively.
Turning to `Cc1cc(C)c(-n2cc3sc(NC4CCCN(C(=O)CC(F)F)C4)nc3n2)c(O)c1` (centres unmarked) [Example 113, 3,3-difluoro-1-(3-{[2-(2-hydroxy-4,6-dimethylphenyl)-2H-pyrazolo[3,4-d][1,3]thiazol-5-yl]amino}piperidin-1-yl)propan-1-one], the IC50 in the test with NF-κB pathway was above 30000 nM; against NLRP3 inflammasome, 510 nM.
Turning to `COC(C)(C)CNc1nc2nn(-c3c(C)cc(C)cc3O)cc2s1` [Example 114, 2-{5-[(2-methoxy-2-methylpropyl)amino]-2H-pyrazolo[3,4-d][1,3]thiazol-2-yl}-3,5-dimethylphenol], the IC50 in the test with NF-κB pathway was above 10000 nM; against NLRP3 inflammasome, 1000 nM.
As to `Cc1cc(C)c(-n2cc3sc(NC4CCC(=O)N(C)C4)nc3n2)c(O)c1` (centres unmarked) [Example 115, 5-{[2-(2-hydroxy-4,6-dimethylphenyl)-2H-pyrazolo[3,4-d][1,3]thiazol-5-yl]amino}-1-methylpiperidin-2-one], the values for the IC50 in the test on NF-κB pathway and on NLRP3 inflammasome were above 30000 nM and 490 nM, respectively.
As to `Cc1cc(C)c(-n2cc3sc(NC[C@@H]4CCCO4)nc3n2)c(O)c1` [Example 116, 3,5-dimethyl-2-[5-({[(2S)-oxolan-2-yl]methyl}amino)-2H-pyrazolo[3,4-d][1,3]thiazol-2-yl]phenol], the IC50 in the test on NF-κB pathway was above 30000 nM; on NLRP3 inflammasome, 1100 nM.
Taken in the same sequence, the figures for `Cc1cc(C)c(-n2cc3sc(NC[C@H]4CCCO4)nc3n2)c(O)c1` [Example 117, 3,5-dimethyl-2-[5-({[(2R)-oxolan-2-yl]methyl}amino)-2H-pyrazolo[3,4-d][1,3]thiazol-2-yl]phenol] were above 10000 nM and 1300 nM.
Take `Cc1cc(C)c(-n2cc3sc(NC4CCCN(C)C4=O)nc3n2)c(O)c1` (centres unmarked) [Example 118, 3-{[2-(2-hydroxy-4,6-dimethylphenyl)-2H-pyrazolo[3,4-d][1,3]thiazol-5-yl]amino}-1-methylpiperidin-2-one]: the IC50 in the test with NF-κB pathway is above 30000 nM; against NLRP3 inflammasome, 780 nM.
Take `CO[C@H](C)CNc1nc2nn(-c3c(C)cc(C)cc3O)cc2s1` [Example 120, 2-(5-{[(2R)-2-methoxypropyl]amino}-2H-pyrazolo[3,4-d][1,3]thiazol-2-yl)-3,5-dimethylphenol]: the IC50 in the test on NF-κB pathway was above 30000 nM; against NLRP3 inflammasome, 720 nM.
Turning to `Cc1cc(C)c(-n2cc3sc(NC4CCN(S(C)(=O)=O)CC4)nc3n2)c(O)c1` [Example 128, 2-(5-{[1-(methanesulfonyl)piperidin-4-yl]amino}-2H-pyrazolo[3,4-d][1,3]thiazol-2-yl)-3,5-dimethylphenol], the IC50 is above 30000 nM in the test on NF-κB pathway and 1200 nM at NLRP3 inflammasome.
For the molecule `Cc1cc(C)c(-n2cc3sc(NC4CCN(CC(F)F)CC4)nc3n2)c(O)c1` [Example 129, 2-(5-{[1-(2,2-difluoroethyl)piperidin-4-yl]amino}-2H-pyrazolo[3,4-d][1,3]thiazol-2-yl)-3,5-dimethylphenol], the 50% inhibitory concentration (IC50) in the test on NF-κB pathway was above 10000 nM; against NLRP3 inflammasome, 2300 nM.
The corresponding values for `COC(=O)N1CCC(Nc2nc3nn(-c4c(C)cc(C)cc4O)cc3s2)CC1` [Example 130, methyl 4-{[2-(2-hydroxy-4,6-dimethylphenyl)-2H-pyrazolo[3,4-d][1,3]thiazol-5-yl]amino}piperidine-1-carboxylate] are above 30000 nM and 1100 nM.
The corresponding values for `CNC(=O)N1CCC(Nc2nc3nn(-c4c(C)cc(C)cc4O)cc3s2)CC1` [Example 131, 4-{[2-(2-hydroxy-4,6-dimethylphenyl)-2H-pyrazolo[3,4-d][1,3]thiazol-5-yl]amino}-N-methylpiperidine-1-carboxamide] are above 30000 nM and 580 nM.
On to `CCC(=O)N1CCC(Nc2nc3nn(-c4c(C)cc(C)cc4O)cc3s2)CC1` [Example 132, 1-(4-{[2-(2-hydroxy-4,6-dimethylphenyl)-2H-pyrazolo[3,4-d][1,3]thiazol-5-yl]amino}piperidin-1-yl)propan-1-one], for which the IC50 in the test on NF-κB pathway was above 30000 nM; against NLRP3 inflammasome it was 1000 nM.
